Experimental data as given in paper PMC11062899, “De novo development of small cyclic peptides that are orally bioavailable” (Nature Chemical Biology, 2023).
Where “and” joins values, the source holds several entries; their conditions need not be identical. Equal entries are not always repeated.

What was measured:
human α-thrombin = human α-thrombin (Homo sapiens, UniProt P00734); experiment: Protease inhibition, Ki for human α-thrombin (fluorogenic substrate Z-Gly-Gly-Arg-AMC); assay type: biochemical; details: replicates R1-R3
Method in brief: (§1)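 Inhibition was measured as AMC fluorescence from 50 μM substrate, monitored for 30 min at 25 °C, relative to a peptide-free control. Human and rat enzymes were present at 2 nM and 3 nM final, respectively, in 50 mM Tris-HCl pH 7.4, 150 mM NaCl, 10 mM MgCl2, 1 mM CaCl2. Ki derives from fitted IC50 via Cheng–Prusoff.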

[1] = Passive artificial membrane permeability (PAMPA); details: for PAMPA permeability: % permeability: 50 μM, 12–18 h, acceptor concentration relative to equilibrium; for Papp at 50 μM / Permeability% Average / Permeability% R1 / Permeability% R3: PAMPA; for Papp at 50 μM: pH 7.4; for Permeability% Average: average of R1-R3; for Permeability% R1: replicate R1; for Permeability% R1 / Permeability% R3: TIC of top well sample relative to sample at theoretical equilibrium; for Permeability% R3: replicate R3
rat α-thrombin = molecular target: T1, rat α-thrombin (Rattus norvegicus, UniProt P18292); experiment: Protease inhibition, Ki for rat α-thrombin (fluorogenic substrate Z-Gly-Gly-Arg-AMC); assay type: biochemical; details: replicates R1-R3
T1 construct: rat α-thrombin (Molecular Innovations) were used at final concentrations of 2 nM and 3 nM; purchased Molecular Innovations
Method in brief: as §1

[2] = Metabolic stability in rat liver microsomes (RLMs); details: rat, microsomes
porcine pepsin = molecular target: T2, porcine pepsin (Sus scrofa, UniProt P00791); experiment: Peptide stability in simulated gastric fluid (SGF); assay type: in vitro ADME; details: for SGF stability, Residual peptide Average / SGF stability, Residual peptide: after 8 h vs 0 h (TIC); for SGF stability, Residual peptide Average: average of R1-R3; for SGF stability, Residual peptide: single replicates R1-R3; for remaining at 8 h: simulated gi fluid, 37 °C, pH 1.2, read-out: Proteolytic stability: SGF (8 h) % remaining
T2 construct: 0.32 g of porcine pepsin (Sigma-Aldrich, P7125) was dissolved under gentle agitation; purchased Sigma-Aldrich P7125
T2 sequence (P00791 60-385): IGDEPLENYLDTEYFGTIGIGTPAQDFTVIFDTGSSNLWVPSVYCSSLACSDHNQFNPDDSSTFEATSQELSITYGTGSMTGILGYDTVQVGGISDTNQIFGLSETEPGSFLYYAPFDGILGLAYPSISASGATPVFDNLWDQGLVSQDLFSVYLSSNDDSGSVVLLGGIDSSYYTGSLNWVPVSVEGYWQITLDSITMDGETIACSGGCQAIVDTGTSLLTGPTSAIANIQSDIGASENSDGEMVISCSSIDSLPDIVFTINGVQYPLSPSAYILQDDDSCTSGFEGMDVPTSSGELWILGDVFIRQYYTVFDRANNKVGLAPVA
Method in brief: (§2)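 Peptide from a 1 mM DMSO stock was added to fluid pre-warmed at 37 °C. SGF was pH 1.2 NaCl with porcine pepsin (0.32 g per 100 ml), and SIF was pH 6.8 potassium phosphate with porcine pancreatin (1 g per 100 ml). Supernatant peptide was quantified by LC–MS, with residual expressed as T1/T0.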

[3] = Peptide stability in simulated intestinal fluid (SIF); assay type: in vitro ADME, porcine; details: simulated gi fluid; 8 h, 37 °C, pH 6.8; read-out: Proteolytic stability: SIF (8 h) % remaining
Method in brief: as §2

porcine pancreatin = experiment: as above; assay type: in vitro ADME; details: after 8 h vs 0 h (TIC); average of R1-R3
Method in brief: as §2

[4] = peptide 1.33E+02 uM, slope of proteolytic substrate cleavage over time
[5] = CL (ul/min/mg protein) R1, RLM CL, replicate R1
[6] = CL (ul/min/mg protein) R2, RLM CL, replicate R2
[7] = CL (ul/min/mg protein) R3, RLM CL, replicate R3
[8] = Half Life (min) R1, RLM metabolic stability, replicate R1, 0-60 min
[9] = Half Life (min) R2, RLM metabolic stability, replicate R2, 0-60 min
[10] = Half Life (min) R3, RLM metabolic stability, replicate R3, 0-60 min
[11] = Metabolic stability: Half life T1/2 (min), RLMs, mean and SD, three measurements
[12] = Metabolic stability: RLM CL (ul/min/mg), RLMs, mean and SD, three measurements

C[C@@H]1NC(=O)[C@@H](NC(=O)c2ccc(Cl)s2)CSCc2cccc(n2)CSCCNC(=O)[C@H]2CCCN(C2)C1=O [compound 30]
Human alpha thrombin inhibition, slope normalized to DMSO (human α-thrombin; peptide 1.02E-03 uM): 97.2 and 97.6 and 106.2
Human alpha thrombin inhibition, slope normalized to DMSO (human α-thrombin; peptide 1.04E+00 uM): 103.4 and 89.3 and 97.4
Human alpha thrombin inhibition, slope normalized to DMSO (human α-thrombin; peptide 1.27E-04 uM): 101.8 and 96.4 and 101.4
Human alpha thrombin inhibition, slope normalized to DMSO (human α-thrombin; peptide 1.30E-01 uM): 98.9 and 98.3 and 91.7
Human alpha thrombin inhibition, slope normalized to DMSO (human α-thrombin; [4]): 9.7 and 9.3 and 8.4
Human alpha thrombin inhibition, slope normalized to DMSO (human α-thrombin; peptide 1.63E-02 uM): 113.9 and 97.8 and 107.6
Human alpha thrombin inhibition, slope normalized to DMSO (human α-thrombin; peptide 1.67E+01 uM): 44.4 and 39.7 and 38.9
Human alpha thrombin inhibition, slope normalized to DMSO (human α-thrombin; peptide 2.03E-03 uM): 93.3 and 95.3 and 103.2
Human alpha thrombin inhibition, slope normalized to DMSO (human α-thrombin; peptide 2.08E+00 uM): 83.8 and 81.0 and 85.8
Human alpha thrombin inhibition, slope normalized to DMSO (human α-thrombin; peptide 2.54E-04 uM): 101.0 and 97.7 and 100.6
Human alpha thrombin inhibition, slope normalized to DMSO (human α-thrombin; peptide 2.60E-01 uM): 90.3 and 93.2 and 100.5
Human alpha thrombin inhibition, slope normalized to DMSO (human α-thrombin; peptide 3.18E-05 uM): 99.8 (2×) and 101.6
Human alpha thrombin inhibition, slope normalized to DMSO (human α-thrombin; peptide 3.26E-02 uM): 100.2 and 97.8 and 102.0
Human alpha thrombin inhibition, slope normalized to DMSO (human α-thrombin; peptide 3.33E+01 uM): 26.4 and 25.5 and 27.5
Human alpha thrombin inhibition, slope normalized to DMSO (human α-thrombin; peptide 4.07E-03 uM): 95.7 and 98.6 and 101.8
Human alpha thrombin inhibition, slope normalized to DMSO (human α-thrombin; peptide 4.17E+00 uM): 69.5 and 72.8 and 72.6
Human alpha thrombin inhibition, slope normalized to DMSO (human α-thrombin; peptide 5.09E-04 uM): 102.0 and 99.0 and 102.1
Human alpha thrombin inhibition, slope normalized to DMSO (human α-thrombin; peptide 5.21E-01 uM): 99.3 and 95.3 and 96.7
Human alpha thrombin inhibition, slope normalized to DMSO (human α-thrombin; peptide 6.36E-05 uM): 99.5 and 97.8 and 101.1
Human alpha thrombin inhibition, slope normalized to DMSO (human α-thrombin; peptide 6.51E-02 uM): 101.0 and 91.1 and 103.2
Human alpha thrombin inhibition, slope normalized to DMSO (human α-thrombin; peptide 6.67E+01 uM): 19.9 and 15.0 and 20.8
Human alpha thrombin inhibition, slope normalized to DMSO (human α-thrombin; peptide 8.14E-03 uM): 100.5 and 116.6 and 101.1
Human alpha thrombin inhibition, slope normalized to DMSO (human α-thrombin; peptide 8.33E+00 uM): 63.9 and 57.2 and 56.3
PAMPA permeability: % permeability [1]: 27 ± 1%
Papp at 50 μM [1]: 2.14 ×10⁻⁶ cm/s
Permeability% Average [1]: 27.4%
Permeability% R1 [1]: 28.09%
Permeability% R3 [1]: 26.42%
Rat alpha thrombin inhibition, slope normalized to DMSO (rat α-thrombin; [4]): 3.2 and 3.1 and 10.4
Rat alpha thrombin inhibition, slope normalized to DMSO (rat α-thrombin; peptide 1.67E+01 uM): 16.1 and 15.2 and 20.3
Rat alpha thrombin inhibition, slope normalized to DMSO (rat α-thrombin; peptide 2.08E+00 uM): 58.5 and 59.8 and 48.9
Rat alpha thrombin inhibition, slope normalized to DMSO (rat α-thrombin; peptide 3.33E+01 uM): 8.9 (2×) and 15.3
Rat alpha thrombin inhibition, slope normalized to DMSO (rat α-thrombin; peptide 4.17E+00 uM): 40.8 and 42.9 and 35.9
Rat alpha thrombin inhibition, slope normalized to DMSO (rat α-thrombin; peptide 6.67E+01 uM): 5.0 and 4.9 and 12.1
Rat alpha thrombin inhibition, slope normalized to DMSO (rat α-thrombin; peptide 8.33E+00 uM): 24.7 and 27.2 and 32.3
microsomal CLint [2, 5]: 79.9 µL/min/mg
microsomal CLint [2, 6]: 59.7 µL/min/mg
microsomal CLint [2, 7]: 75.2 µL/min/mg
half-life [2, 8]: 17.3 min
half-life [2, 9]: 23.2 min
half-life [2, 10]: 18.4 min
half-life [2, 11]: 19.7 ± 2.5 min
microsomal CLint [2, 12]: 72 ± 9 µL/min/mg
SGF stability, Residual peptide Average (porcine pepsin): 90.24
SGF stability, Residual peptide (porcine pepsin): 101.78 and 81.27 and 87.66
remaining at 8 h (porcine pepsin): 90 ± 10%
remaining at 8 h [3]: 98 ± 11%
SIF stability, Residual peptide Average (porcine pancreatin): 97.68

O=C1C[C@H]2CCCN2C(=O)[C@H](Cc2ccccn2)NC(=O)[C@@H](NC(=O)c2ccc(Cl)s2)CSCCS(=O)(=O)CCSCCN1 [compound 12]
Human alpha thrombin inhibition, slope normalized to DMSO (human α-thrombin; peptide 1.02E-03 uM): 102.9 and 99.8 and 96.6
Human alpha thrombin inhibition, slope normalized to DMSO (human α-thrombin; peptide 1.04E+00 uM): 56.9 and 56.3 and 49.2
Human alpha thrombin inhibition, slope normalized to DMSO (human α-thrombin; peptide 1.27E-04 uM): 90.5 and 95.3 and 95.8
Human alpha thrombin inhibition, slope normalized to DMSO (human α-thrombin; peptide 1.30E-01 uM): 71.9 and 86.4 and 78.8
Human alpha thrombin inhibition, slope normalized to DMSO (human α-thrombin; [4]): 6.4 and 9.7 and 4.3
Human alpha thrombin inhibition, slope normalized to DMSO (human α-thrombin; peptide 1.63E-02 uM): 99.5 and 89.1 and 90.1
Human alpha thrombin inhibition, slope normalized to DMSO (human α-thrombin; peptide 1.67E+01 uM): 16.0 and 14.1 and 9.4
Human alpha thrombin inhibition, slope normalized to DMSO (human α-thrombin; peptide 2.03E-03 uM): 98.8 and 94.5 and 92.3
Human alpha thrombin inhibition, slope normalized to DMSO (human α-thrombin; peptide 2.08E+00 uM): 52.9 and 44.1 and 36.2
Human alpha thrombin inhibition, slope normalized to DMSO (human α-thrombin; peptide 2.54E-04 uM): 106.8 and 94.8 and 97.0
Human alpha thrombin inhibition, slope normalized to DMSO (human α-thrombin; peptide 2.60E-01 uM): 78.1 and 77.3 and 67.5
Human alpha thrombin inhibition, slope normalized to DMSO (human α-thrombin; peptide 3.18E-05 uM): 100.4 and 97.0 and 90.2
Human alpha thrombin inhibition, slope normalized to DMSO (human α-thrombin; peptide 3.26E-02 uM): 100.0 and 89.9 and 87.8
Human alpha thrombin inhibition, slope normalized to DMSO (human α-thrombin; peptide 3.33E+01 uM): 12.7 and 10.3 and 16.0
Human alpha thrombin inhibition, slope normalized to DMSO (human α-thrombin; peptide 4.07E-03 uM): 92.6 and 96.1 and 91.8
Human alpha thrombin inhibition, slope normalized to DMSO (human α-thrombin; peptide 4.17E+00 uM): 39.5 and 36.2 and 29.7
Human alpha thrombin inhibition, slope normalized to DMSO (human α-thrombin; peptide 5.09E-04 uM): 101.4 and 93.9 and 96.1
Human alpha thrombin inhibition, slope normalized to DMSO (human α-thrombin; peptide 5.21E-01 uM): 64.5 and 65.3 and 59.0
Human alpha thrombin inhibition, slope normalized to DMSO (human α-thrombin; peptide 6.36E-05 uM): 103.2 and 97.0 and 93.0
Human alpha thrombin inhibition, slope normalized to DMSO (human α-thrombin; peptide 6.51E-02 uM): 93.3 and 87.6 and 88.6
Human alpha thrombin inhibition, slope normalized to DMSO (human α-thrombin; peptide 6.67E+01 uM): 9.5 and 8.1 and 4.7
Human alpha thrombin inhibition, slope normalized to DMSO (human α-thrombin; peptide 8.14E-03 uM): 100.4 and 99.0 and 91.1
Human alpha thrombin inhibition, slope normalized to DMSO (human α-thrombin; peptide 8.33E+00 uM): 24.1 and 22.7 and 13.9
PAMPA permeability: % permeability [1]: 0.35 ± 0.03%
Papp at 50 μM [1]: 0.0229 ×10⁻⁶ cm/s
Permeability% Average [1]: 0.35%
Permeability% R1 [1]: 0.32%
Permeability% R3 [1]: 0.38%
Rat alpha thrombin inhibition, slope normalized to DMSO (rat α-thrombin; [4]): 4.6 and 7.6 and 2.5
Rat alpha thrombin inhibition, slope normalized to DMSO (rat α-thrombin; peptide 1.67E+01 uM): 7.9 and 9.3 and 7.8
Rat alpha thrombin inhibition, slope normalized to DMSO (rat α-thrombin; peptide 2.08E+00 uM): 26.1 and 28.9 and 26.4
Rat alpha thrombin inhibition, slope normalized to DMSO (rat α-thrombin; peptide 3.33E+01 uM): 4.7 and 8.8 and 5.5
Rat alpha thrombin inhibition, slope normalized to DMSO (rat α-thrombin; peptide 4.17E+00 uM): 21.7 and 23.0 and 20.8
Rat alpha thrombin inhibition, slope normalized to DMSO (rat α-thrombin; peptide 6.67E+01 uM): 5.5 and 8.4 and 4.7
Rat alpha thrombin inhibition, slope normalized to DMSO (rat α-thrombin; peptide 8.33E+00 uM): 11.6 and 14.0 and 11.0
microsomal CLint [2, 5]: 90.2 µL/min/mg
microsomal CLint [2, 6]: 68.8 µL/min/mg
microsomal CLint [2, 7]: 72.9 µL/min/mg
half-life [2, 8]: 15.4 min
half-life [2, 9]: 20.1 min
half-life [2, 10]: 19 min
half-life [2, 11]: 18.2 ± 2 min
microsomal CLint [2, 12]: 77 ± 9 µL/min/mg
microsomal CLint ([2]; Metabolic stability: RLM CL Average, summary table, average of R1-R3): 77.3 µL/min/mg
microsomal CLint ([2]; Metabolic stability: RLM CL R1, summary table, rounded, replicate R1): 90.2 µL/min/mg
microsomal CLint ([2]; Metabolic stability: RLM CL R2, summary table, rounded, replicate R2): 68.8 µL/min/mg
microsomal CLint ([2]; Metabolic stability: RLM CL R3, summary table, rounded, replicate R3): 73 µL/min/mg
SGF stability, Residual peptide Average (porcine pepsin): 99.15
SGF stability, Residual peptide (porcine pepsin): 102.14 and 93.27 and 102.05
remaining at 8 h (porcine pepsin): 99 ± 5%
remaining at 8 h [3]: 96 ± 6%
SIF stability, Residual peptide Average (porcine pancreatin): 95.62
